From patent publication USRE49311E1, “Bacillus thuringiensis RTI545 compositions and methods of use for benefiting plant growth and controlling plant pests” (priority 2016, dated 2022)

Assays:
[1] = tested on: corn rootworm (Diabrotica spp.); experiment: In-furrow corn field trials, corn rootworm-infested plots (18 trials, North America); format: in vivo; settings: vs untreated, bifenthrin 112 g ai/Ha, RTI545 1.24 × 10^12 CFU/Ha, tefluthrin 168 g ai/Ha; for % Damage reduction, Heavy CRW Pressure / % Yield Increase, Heavy CRW Pressure: 5 trials; for % Damage reduction / % Yield Increase: 18 trials
From the text: (§1) In-furrow treatments of corn with RTI545 were studied in multiple field trials in various locations in North America to evaluate effectiveness against wireworm (Melanotus spp.) and corn rootworm (Diabrotica spp.). The effects on yield and crop damage of several treatments compared to untreated controls for the individual North America trials were aggregated and summarized as an average for the trial in the following tables as % yield increase and % reduction in damage compared to the untreated controls. Seven trials were evaluated for wireworm. Eighteen trials were evaluated for corn rootworm. Five trials with heavy damage from corn rootworm were averaged separately.

[2] = tested on: wireworm (Melanotus spp.); experiment: In-furrow corn field trials, wireworm-infested plots (7 trials, North America); format: in vivo; settings: vs untreated, average of 7 trials; bifenthrin 56 g ai/Ha, RTI545 3 × 10^11 CFU/Ha, tefluthrin 168 g ai/Ha
From the text: as §1

[3] = tested on: root knot (RKN) nematode juveniles (J2); experiment: Nematode chemotaxis assay on agar plates; format: in vivo, Meloidogyne spp.; settings: for Cf (chemotaxis factor) at 3 h / Cf (chemotaxis factor) at 5 h: Cf<0.5 repellent, >2 attractant
Protocol: Similarly, activity of RTI545 against nematodes may also be due to compound(s) produced by the strain. A nematode chemotaxis assay on agar plates was conducted as described below to evaluate response of root knot (RKN) nematode juveniles (J2) to different concentrations of kanosamine and RTI545 supernatant in vitro.
The test arena is shown schematically in FIG. 6. Nine-cm-diameter Petri dishes were filled with 15 ml 0.75% Phytagel (including 0.1% MgSO4.7H2O). […] was used, instead of water agar, so that nematode tracks could be observed under a microscope. Wells of 0.5 cm diameter which can accommodate approximately 50 μl of solution were made at opposite sides of the dishes at 2 cm from the center. The test samples were applied in the wells and left to diffuse for 1 hour with lids on the dishes, so a gradient around the wells could be established. Then, 75-100 J2 stage root-knot nematodes suspended in 5 μl of sterile distilled water were placed by pipette in the center 1.5 cm-diameter circle of the plate. When the surface tension of the water suspension was lost, the dishes were covered with lids and incubated in the dark on a leveled platform at 25° C. for […]. After incubation the plates were transferred to 4° C. to stop nematode movement for scoring at 2 h, 3 h and 5 h after setup. Three replicates were done for each test material.
For scoring, the test arena was divided into sixteen zones, designated as 1-8 for attractive zones and a-h for repellent zones as shown in FIG. 6A. Nematodes attracted to the test substance would tend to move to the numbered (attractive) zones, resulting in clustering along the axis parallel to the orientation of the wells. Repelled nematodes would tend to move to the lettered (repellant) zones, resulting in clustering along the axis perpendicular to the orientation of the wells. The chemotaxis factor (Cf) was calculated by dividing the total number of nematodes in the attractant zones by the total number of nematodes in the repellent zones. A Cf greater than 2 meant attraction for the nematodes, while lower than 0.5 indicated repellence, and 0.5 to 2 was considered neutral.

lesion nematode = experiment: Soil drench tests against lesion nematode; format: in vivo, Pratylenchus penetrans
From the text: Similar tests wherein RTI545 was applied as a soil drench at the rate of 2.5×10^11 CFU/ha provided 71% reduction in lesion nematode numbers per root compared to 95% for abamectin. In soil drench tests applied to pots in the greenhouse with soil infested with lesion nematode eggs and adults (2000 individuals/pot) RTI545 at the rate of 2.5×10^13 CFU/ha provided 80% reduction in nematode numbers per root compared to 86% reduction by cadusafos.

[4] = tested on: soybean cyst nematode (Heterodera glycines); experiment: Soybean cyst nematode soil drench assay, greenhouse; format: in vivo; settings: day 70
[5] = tested on: root knot nematode (RKN) eggs; experiment: Root knot nematode egg hatching assay, 24-well plates; format: in vivo, Meloidogyne incognita/hapla; settings: for % Hatching after 7 days / % Hatching after 14 days: mean of 6 replicates ± SD
Protocol: The following day, the optical density (OD) of 1:100 dilutions was measured at 600 nm to estimate the volume needed for inoculation of fermentation flasks. […] Bacteria were grown overnight (for 16 h) at 200 rpm at 30° C. Two ml of bacterial culture was saved to measure the OD and colony forming units (CFU). The remaining culture was centrifuged (2500 rpm, 15 min) and the supernatant was filter-sterilized through a 0.22 μm filter. […] The supernatant was kept at 4° C. until the initiation of the bioassay. […] A mixed culture of root knot nematodes (Meloidogyne incognita and M. hapla) was used. Nematode eggs were extracted from tomato roots by bleaching and cleaned using an Opti-prep centrifugation step followed by two washes in water. Before setting up the hatching assay, the percentage of early (eggs with a visible embryo) and late eggs (eggs with differentiated juveniles inside; […] Only fresh eggs (collected at the day of the initiation of the assay) were used for the bioassay. The assay was performed in 24-well tissue culture plates. […] Antibiotics were suspended in sterile distilled water. The final concentration of antibiotics in testing plates was 75 mg/L of penicillin and 75 mg/L of streptomycin. […] The addition of methyl cellulose increases the accuracy of adding the same number of inoculum to each treatment. The treatments were set up in 6 replications. Each plate was covered, wrapped in aluminum foil and placed in an incubator set at 25° C. […] For each time point and treatment, the percent hatching was calculated according to the formula: […] All treatments were supplemented with antibiotics (75 mg/L of penicillin and 75 mg/L of streptomycin) to prevent contamination. Data are means from 6 replicates± standard deviation of the means.

[6] = tested on: Southern Corn Rootworm (SCRW) larvae; experiment: SCRW larvae choice feeding assay of corn seedlings; settings: for Mean percent of SCRW larvae on treated portion of the filter paper / Mean percent of SCRW larvae on untreated portion of the filter paper: 3 days
Protocol: Repellency was measured using a choice in vitro plate feeding assay of corn seedlings by SCRW larvae and scored after 72 hours as the percentage of SCRW larvae on the non-treated side of the plate. In the case of no repellency, an equal distribution of 50% on both the treated and non-treated half of the plate would be expected, indicating 0% repellency. In this experiment, the Bacillus thuringiensis RTI545 and Bacillus thuringiensis subsp. kurstaki HD-1 (HD-1), were evaluated in comparison to a water control after 3 days in the assay.
The choice feeding assay for SCRW larvae using corn seedlings was also repeated to compare RTI545 to another Bacillus thuringiensis strain FD30 and kanosamine. […] Repellency was measured using a choice in vitro plate feeding assay of corn seedlings by SCRW larvae and scored after 72 hours as the percentage of SCRW larvae on the non-treated side of the plate. In the case of no repellency, an equal distribution of 50% on both the treated and non-treated half of the plate would be expected, indicating 0% repellency.

[7] = RTI545 2.5 × 10^12 CFU/ha, Abamectin 0.01 ppm, VENERATE XC 500 mg/plant
[8] = RTI545 2.5 × 10^13 CFU/ha, Abamectin 0.1 ppm
[9] = kanosamine 100 μg/ml (alone or + FD30)

Cc1c(COC(=O)[C@@H]2[C@H](/C=C(\Cl)C(F)(F)F)C2(C)C)cccc1-c1ccccc1 (racemic) [Bifenthrin]
% Damage reduction, Heavy CRW Pressure [1]: 45% | % Yield Increase, Heavy CRW Pressure [1]: 11% | % Damage reduction [1]: 42% | % Yield Increase [1]: 4% | % Yield Increase [2]: 5%

Cc1c(F)c(F)c(COC(=O)[C@@H]2[C@H](/C=C(\Cl)C(F)(F)F)C2(C)C)c(F)c1F (racemic) [Tefluthrin]
% Damage reduction, Heavy CRW Pressure [1]: 52% | % Yield Increase, Heavy CRW Pressure [1]: 16% | % Damage reduction [1]: 46% | % Yield Increase [1]: 3% | % Yield Increase [2]: 5%

CC(=O)O [Acetic Acid]
Cf (chemotaxis factor) at 3 h ([3]; acetic acid 1%): 0.45 | Cf (chemotaxis factor) at 5 h ([3]; acetic acid 1%): 0.4 | Cf (chemotaxis factor) at 2 h ([3]; acetic acid 1%, data not shown): neutral

CCOP(=O)(SC(C)CC)SC(C)CC (stereo not shown) [cadusafos]
Reduction in nematode numbers per root (lesion nematode; soil drench to greenhouse pots, eggs and adults 2000 individuals/pot, RTI545 2.5×10^13 CFU/ha): 86%

abamectin
Reduction in lesion nematode numbers per root (lesion nematode; soil drench, RTI545 2.5×10^11 CFU/ha): 95% | % Reduction of cysts [4, 7]: 79% | Number of cysts extracted [4, 7]: 31 | % Reduction of cysts [4, 8]: 96% | Number of cysts extracted [4, 8]: 7 | % Hatching after 7 days ([5]; abamectin 0.1 ppm): 24.4 ± 2.9% | % Hatching after 14 days ([5]; abamectin 0.1 ppm): 27.8 ± 5.7% | % Hatching after 7 days ([5]; abamectin 1.0 ppm): 4.9 ± 0.9% | % Hatching after 14 days ([5]; abamectin 1.0 ppm): 8.5 ± 1.6% | Egg hatching inhibition ([5]; rate of 1 ppm, after 14 days): 72%

kanosamine
Mean percent of SCRW larvae on treated portion of the filter paper ([6]; kanosamine 10 μg/ml): 16.67% | Mean percent of SCRW larvae on untreated portion of the filter paper ([6]; kanosamine 10 μg/ml): 83.33% | Mean percent of SCRW larvae on treated portion of the filter paper [6, 9]: 16.67% | Mean percent of SCRW larvae on untreated portion of the filter paper [6, 9]: 83.33% | Repellent effects on SCRW ([6]; all dilution rates between 0.1 μg/ml and 100.0 μg/ml, at 24 h, two separate bioassays): repellent effects | Feeding damage on corn ([6]; at 3 d, choice assay): minimal feeding damage | Repellency to SCRW ([6]; second test, filter paper treated with 30.0 ug/ml, out to 5 days): complete repellency | Avoidance response of SCRW ([6]; treated filter paper at 10 and 100 μg/ml): 80% | Cf (chemotaxis factor) ([3]; all tested kanosamine rates (1, 10 and 100 μg/ml) and all time points): higher than 0.5 | Cf (chemotaxis factor) at 3 h ([3]; kanosamine 1 μg/ml): 1.0 | Cf (chemotaxis factor) at 5 h ([3]; kanosamine 1 μg/ml): 1.0 | Cf (chemotaxis factor) at 3 h ([3]; kanosamine 10 μg/ml): 0.6 | Cf (chemotaxis factor) at 5 h ([3]; kanosamine 10 μg/ml): 0.7 | Cf (chemotaxis factor) at 3 h ([3]; kanosamine 100 μg/ml): 0.6 | Cf (chemotaxis factor) at 5 h ([3]; kanosamine 100 μg/ml): 0.7 | Hatching rate higher than in water control ([5]; after seven days): up to 80% | % Hatching after 7 days ([5]; kanosamine 1 μg/ml): 35.9 ± 5.2% | % Hatching after 14 days ([5]; kanosamine 1 μg/ml): 40.1 ± 6.8% | % Hatching after 7 days ([5]; kanosamine 10 μg/ml): 39.4 ± 3% | % Hatching after 14 days ([5]; kanosamine 10 μg/ml): 42.1 ± 12.1% | % Hatching after 7 days ([5]; kanosamine 100 μg/ml): 32.4 ± 4.8% | % Hatching after 14 days ([5]; kanosamine 100 μg/ml): 41.6 ± 6.8%
